From ChEMBL document CHEMBL2439949, “Synthesis and structure-activity relationships of phenyl-substituted coumarins with anti-tubercular activity that target FadD32” (Bioorg Med Chem Lett, 2013)
Activity calls are given as the source filed them. The calls are words filed in the database; no cut-off is given here.

Test system: Mycobacterium tuberculosis
Assay: Antimycobacterial activity against Mycobacterium tuberculosis expressing FadD32 E120G mutant after 7 days
Type: functional

Row | Compound | IC90 [µM]
1 | Cc1cc2oc(=O)cc(-c3ccccc3)c2c(C)c1-c1ccc(CNC2CCCCC2)cc1 | 32

Test system: Mycobacterium tuberculosis
Assay: Antimycobacterial activity against Mycobacterium tuberculosis expressing FadD32 E120G mutant at 125 uM after 7 days
Type: functional, organism-based

Row | Compound | Activity
2 | Cc1cc2oc(=O)cc(-c3cccc([N+](=O)[O-])c3)c2c(C)c1-c1ccc(CN2CCOCC2)cc1 | inactive
3 | Cc1cc2oc(=O)cc(-c3ccccc3)c2c(C)c1-c1ccc(CO)cc1 | inactive
4 | Cc1cc(CO)ccc1-c1c(C)cc2oc(=O)cc(-c3ccccc3)c2c1C | inactive
5 | Cc1cc2oc(=O)cc(-c3ccc(N)cc3)c2c(C)c1-c1ccc(CN2CCOCC2)cc1 | inactive
6 | Cc1cc2oc(=O)cc(-c3ccccc3)c2c(C)c1-c1ccc(C(C)O)cc1 (stereo not given) | inactive
7 | Cc1cc2oc(=O)cc(-c3ccccc3)c2c(C)c1-c1ccccc1Cl | inactive
8 | Cc1cc2oc(=O)cc(-c3cccnc3)c2c(C)c1-c1ccc(CN2CCOCC2)cc1 | inactive
9 | CC(=O)Nc1cccc(-c2cc(=O)oc3cc(C)c(-c4ccc(CN5CCOCC5)cc4)c(C)c23)c1 | inactive
10 | Cc1cc2oc(=O)cc(-c3ccccc3)c2c(C)c1-c1ccc(CN2CCOCC2)cc1 | inactive
11 | Cc1cc2oc(=O)cc(-c3ccccc3)c2c(C)c1-c1ccncc1 | inactive
12 | Cc1cc2oc(=O)cc(-c3ccccc3)c2c(C)c1-c1ccc(CNC2CCCCC2)cc1 | inactive
13 | CNC(=O)c1ccc(-c2c(C)cc3oc(=O)cc(-c4ccccc4)c3c2C)cc1 | inactive
14 | Cc1cc2oc(=O)cc(-c3ccccc3)c2c(C)c1-c1ccc(CN2CCCCC2)cc1 | inactive
15 | Cc1cc2oc(=O)cc(-c3ccccc3)c2c(C)c1-c1ccc(CN2CCN(C)CC2)cc1 | inactive
